From US20060173015A1, “Cyclohexyldiamines as selective alpha 1a/1d adrenoreceptor antagonists for the treatment of benign prostatic hypertrophy and lower urinary tract symptoms” (priority 2004, published 2006) come the findings set out here.

A word on the Ki: it is the dissociation constant of the complex between target and ligand, obtained from inhibition or displacement.

One assay concerns the target T1, α1a-AR (Homo sapiens, UniProt P35348).
T1 construct: expressed in transfected cells; host or cells: COS-7
T1 sequence (P35348 1-466): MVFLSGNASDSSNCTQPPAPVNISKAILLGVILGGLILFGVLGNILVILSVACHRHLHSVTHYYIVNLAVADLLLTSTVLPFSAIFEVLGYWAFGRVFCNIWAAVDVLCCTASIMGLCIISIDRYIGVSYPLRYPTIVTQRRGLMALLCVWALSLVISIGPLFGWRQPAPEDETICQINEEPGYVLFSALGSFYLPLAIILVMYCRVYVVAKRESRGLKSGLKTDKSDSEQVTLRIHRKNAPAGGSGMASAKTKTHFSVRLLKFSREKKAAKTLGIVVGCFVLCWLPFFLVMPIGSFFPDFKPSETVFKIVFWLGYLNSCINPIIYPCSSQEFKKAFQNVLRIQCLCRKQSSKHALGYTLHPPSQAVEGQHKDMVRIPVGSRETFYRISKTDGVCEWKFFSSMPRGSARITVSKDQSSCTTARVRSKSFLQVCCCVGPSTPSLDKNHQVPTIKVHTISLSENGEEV
As to the kind of experiment: α1-Adrenergic receptor radio-ligand (125I-HEAT) binding assay, α1a subtype. The settings on record: COS-7 cell membranes, 125I-HEAT. On the procedure:
(§1) α1-Adrenergic Receptor Binding Assay: Preparation of COS Cell Membranes
(§2) Membranes were prepared from COS-7 cells that had been transfected with one of the three α1-AR subtypes by the following method. COS cells from ten 100 mm tissue culture plates were scraped into 5 mL TE (50 mM Tris-HCl, 5 mM EDTA, pH 7.4). The cell suspension was disrupted with a Brinkman Polytron, setting 8, for 10 sec. The disrupted cells were centrifuged at 1000×g for 10 min at 4° C. Supernatants were centrifuged at 34,500×g for 20 min at 4° C. The membrane pellets were suspended in 2 mL TNE (50 mM Tris-HCl, 5 mM EDTA, 150 mM NaCl, pH7.4). An aliquot of the membrane suspension was stored at −70° C. until use. The protein concentration was determined using the BioRad DC protein assay kit following membrane solubilization with Triton X-100.
(§3) Radio-Ligand Binding Assay
(§4) Triplicate determinations of radio-ligand binding in the presence of increasing: concentrations of testing compound were made. The reagents were added to 96-well polypropylene plate wells using the Biomek 1000 robot (Beckman Instruments). Each assay well contained 140 μl TNE, 25 μL ^125I-HEAT (specific activity 2200 Ci/mmol, Dupont-NEN, 50 pM final), 10 μL testing compound dissolved in DMSO (1 pM to 10 μM in half-log increments, final), and 25 μL appropriate α1-AR membrane subtype suspension in TNE (0.5 ng/μL for the α1a and α1b subtypes and 13 ng/μL for the α1d subtype). The plate was incubated at rt for 1 hr. The contents of the wells were filtered through a GF/C membrane Unifilter plate (Packard Instruments) using the Packard Filtermate cell harvester. The filter plates were dried in a vacuum oven for 30 min at 40° C. 25 μL Microscint 20 liquid scintillation fluid (Packard Instuments) was added to each well. The radioactive content was analyzed in the TopCount microplate scintillation counter (Packard Instruments).

The target in a further assay is T2, α1d-AR (Homo sapiens, UniProt P25100).
T2 construct: expressed in transfected cells; host or cells: COS-7
T2 sequence (P25100 1-572): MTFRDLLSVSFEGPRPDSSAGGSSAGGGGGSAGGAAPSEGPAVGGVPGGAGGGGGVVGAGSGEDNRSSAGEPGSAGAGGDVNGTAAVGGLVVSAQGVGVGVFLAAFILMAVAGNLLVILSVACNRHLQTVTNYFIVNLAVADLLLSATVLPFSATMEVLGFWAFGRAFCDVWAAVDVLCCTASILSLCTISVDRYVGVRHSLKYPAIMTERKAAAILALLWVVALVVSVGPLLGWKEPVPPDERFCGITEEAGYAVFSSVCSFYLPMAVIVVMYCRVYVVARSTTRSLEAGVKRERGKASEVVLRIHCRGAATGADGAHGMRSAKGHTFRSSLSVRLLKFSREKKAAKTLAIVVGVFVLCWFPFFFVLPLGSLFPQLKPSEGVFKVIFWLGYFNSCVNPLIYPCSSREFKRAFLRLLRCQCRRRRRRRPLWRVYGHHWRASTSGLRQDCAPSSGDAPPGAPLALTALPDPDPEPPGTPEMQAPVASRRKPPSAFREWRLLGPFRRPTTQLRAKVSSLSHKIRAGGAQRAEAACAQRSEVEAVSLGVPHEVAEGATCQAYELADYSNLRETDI
Kind of assay: α1-Adrenergic receptor radio-ligand (125I-HEAT) binding assay, α1d subtype. The settings on record: COS-7 cell membranes, 125I-HEAT; read-out: Receptor Binding, Ki α1d-AR. On the procedure: as §1, §2, §3
as §4, with “Each assay well contained 140 μl TNE, 25 μL ^125I-HEAT (specific activity 2200 Ci/mmol, Dupont-NEN, 50 pM final), 10 μL testing compound dissolved in DMSO (1 pM to 10 μM in half-log increments, final), and 25 μL appropriate α1-AR membrane subtype suspension in TNE (0.5 ng/μL for the α1a and α1b subtypes and 13 ng/μL for the α1d subtype).” left out

In the next assay the target is T3, α1b-AR (Homo sapiens, UniProt P35368).
T3 sequence (P35368 1-520): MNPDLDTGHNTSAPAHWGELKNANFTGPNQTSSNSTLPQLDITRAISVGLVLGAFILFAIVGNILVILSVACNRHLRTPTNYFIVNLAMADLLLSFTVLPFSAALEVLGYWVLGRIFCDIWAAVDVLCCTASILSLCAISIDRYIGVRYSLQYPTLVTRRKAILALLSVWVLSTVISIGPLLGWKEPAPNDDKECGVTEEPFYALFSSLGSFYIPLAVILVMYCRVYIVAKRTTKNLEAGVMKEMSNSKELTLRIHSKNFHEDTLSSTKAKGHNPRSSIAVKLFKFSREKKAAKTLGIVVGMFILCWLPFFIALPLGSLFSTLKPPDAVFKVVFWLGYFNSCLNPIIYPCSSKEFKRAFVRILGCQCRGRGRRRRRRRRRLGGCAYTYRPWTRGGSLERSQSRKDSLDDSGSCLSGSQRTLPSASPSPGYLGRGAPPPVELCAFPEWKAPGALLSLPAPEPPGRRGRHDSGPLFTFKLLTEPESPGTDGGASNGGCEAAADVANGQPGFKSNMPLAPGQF
As to the kind of experiment: α1-Adrenergic receptor radio-ligand (125I-HEAT) binding assay, α1b subtype. The following applies: Receptor Binding, Ki α1b-AR, COS-7 cell membranes, 125I-HEAT.

The structures appear in SMILES notation.

`COc1ccc([N+](=O)[O-])cc1S(=O)(=O)N[C@H]1CC[C@@H](N2CCN(c3ccccc3OC(C)C)CC2)CC1` [Cpd 19, N-cis-{4-[4-(2-Isopropoxy-phenyl)-piperazin-1-yl]-cyclohexyl}-2-methoxy-5-nitro-benzenesulfonamide]: the inhibition constant Ki was 4.3 nM at α1a-AR, 2.2 nM at α1d-AR and 85.3 nM on α1b-AR.

Take `COc1ccc(C(F)(F)F)cc1S(=O)(=O)N[C@H]1CC[C@@H](N2CCN(c3ccccc3OC(C)C)CC2)CC1` [Cpd 20, N-cis-{4-[4-(2-Isopropoxy-phenyl)-piperazin-1-yl]-cyclohexyl}-2-methoxy-5-trifluoromethyl-benzenesulfonamide]: the Ki at α1a-AR came out at 35.9 nM; at α1d-AR, 14 nM; at α1b-AR, 473 nM.

Consider `CC(C)Oc1ccccc1N1CCN([C@H]2CC[C@@H](NS(=O)(=O)c3cccc(F)c3)CC2)CC1` [Cpd 22, 3-Fluoro-N-cis-{4-[4-(2-isopropoxy-phenyl)-piperazin-1-yl]-cyclohexyl}-benzenesulfonamide], for which the Ki on α1a-AR was 3.5 nM; at α1d-AR, 3.3 nM; on α1b-AR, 108 nM.

For `CC(C)Oc1ccccc1N1CCN([C@H]2CC[C@@H](NS(=O)(=O)c3ccccc3)CC2)CC1` [Cpd 25], the Ki amounted to 13.7 nM on α1a-AR, 5.2 nM on α1d-AR and 111 nM on α1b-AR.

Regarding `CC(C)Oc1ccccc1N1CCN([C@H]2CC[C@@H](NS(=O)(=O)c3ccccc3[N+](=O)[O-])CC2)CC1` [Cpd 26], the results for the Ki at α1a-AR, on α1d-AR and on α1b-AR were 6.3 nM, 2.5 nM and 201 nM, respectively.

As for `CC(C)Oc1ccccc1N1CCN([C@H]2CC[C@H](NS(=O)(=O)c3ccc(Cl)cc3Cl)CC2)CC1` [Cpd 29, 2,4-Dichloro-N-trans-{4-[4-(2-isopropoxy-phenyl)-piperazine-1-yl]-cyclohexyl}-benzenesulfonamide], the Ki on α1a-AR is 1.6 nM; at α1d-AR, 8.6 nM; at α1b-AR, 596 nM.

As to `COc1ccc(C)cc1S(=O)(=O)N[C@H]1CC[C@H](N2CCN(c3ccccc3OC(C)C)CC2)CC1` [Cpd 32, N-trans-{4-[4-(2-Isopropoxy-phenyl)-piperazin-1-yl]-cyclohexyl}-2-methoxy-5-methyl-benzenesulfonamide], the Ki on α1a-AR was 0.9 nM; at α1d-AR, 31 nM; on α1b-AR, 218 nM.

As for `CC(C)Oc1ccccc1N1CCN([C@H]2CC[C@H](NS(=O)(=O)c3ccccc3S(C)(=O)=O)CC2)CC1` [Cpd 33, N-trans-{4-[4-(2-Isopropoxy-phenyl)-piperazin-1-yl]-cyclohexyl}-2-methanesulfonyl-benzenesulfonamide], the Ki was 12.5 nM at α1a-AR, 2.8 nM on α1d-AR and 118 nM on α1b-AR.

As to `CC(C)Oc1ccccc1N1CCN([C@H]2CC[C@H](NS(=O)(=O)c3ccc(C(F)(F)F)cc3)CC2)CC1` [Cpd 37, N-trans-{4-[4-(2-Isopropoxy-phenyl)-piperazin-1-yl]-cyclohexyl}-4-trifluoromethyl-benzenesulfonamide], the Ki on α1a-AR stood at 67 nM; at α1d-AR, 65 nM; on α1b-AR, 931 nM.

Turning to `CC(C)Oc1ccccc1N1CCN([C@H]2CC[C@H](NS(=O)(=O)c3ccc(F)cc3)CC2)CC1` [Cpd 38, 4-Fluoro-N-trans-{4-[4-(2-isopropoxy-phenyl)-piperazin-1-yl]-cyclohexyl}-benzenesulfonamide], the figures for the Ki at α1a-AR, at α1d-AR and at α1b-AR were 1.3 nM, 36 nM and 301 nM, respectively.

On to `Cc1c(Cl)cccc1S(=O)(=O)N[C@H]1CC[C@H](N2CCN(c3ccccc3OC(C)C)CC2)CC1` [Cpd 39, 3-Chloro-N-trans-{4-[4-(2-isopropoxy-phenyl)-piperazin-1-yl]-cyclohexyl}-2-methyl-benzenesulfonamide], for which the Ki is 1.1 nM on α1a-AR, 5.4 nM on α1d-AR and 554 nM on α1b-AR.

For the compound `CC(C)Oc1ccccc1N1CCN([C@H]2CC[C@H](NS(=O)(=O)c3cc(Cl)ccc3F)CC2)CC1` [Cpd 40, 5-Chloro-2-fluoro-N-trans-{4-[4-(2-isopropoxy-phenyl)-piperazin-1-yl]-cyclohexyl}-benzenesulfonamide], the Ki at α1a-AR was found to be 8.9 nM; on α1d-AR it was 27.3 nM; at α1b-AR, 441 nM.

As to `CC(C)Oc1ccccc1N1CCN([C@H]2CC[C@H](NS(=O)(=O)c3ccccc3C(F)(F)F)CC2)CC1` [Cpd 41, N-trans-{4-[4-(2-Isopropoxy-phenyl)-piperazin-1-yl]-cyclohexyl}-2-trifluoromethyl-benzenesulfonamide], the figures for the Ki on α1a-AR, on α1d-AR and on α1b-AR were 18.1 nM, 246 nM and 844 nM, respectively.

For `CC(C)Oc1ccccc1N1CCN([C@H]2CC[C@H](NS(=O)(=O)c3ccc(F)c(Cl)c3)CC2)CC1` [Cpd 42, 3-Chloro-4-fluoro-N-trans-{4-[4-(2-isopropoxy-phenyl)-piperazin-1-yl]-cyclohexyl}-benzenesulfonamide], the values for the Ki on α1a-AR, on α1d-AR and on α1b-AR were 6.6 nM, 72 nM and 2300 nM, respectively.

In the case of `COc1ccc(F)cc1S(=O)(=O)N[C@H]1CC[C@H](N2CCN(c3ccccc3OC(C)C)CC2)CC1` [Cpd 43, 5-Fluoro-N-trans-{4-[4-(2-isopropoxy-phenyl)-piperazin-1-yl]-cyclohexyl}-2-methoxy-benzenesulfonamide], the Ki on α1a-AR stood at 11 nM; on α1d-AR, 66 nM; on α1b-AR, 714 nM.

Regarding `CC(C)Oc1ccccc1N1CCN([C@H]2CC[C@H](NS(=O)(=O)c3ccc(OC(F)(F)F)cc3)CC2)CC1` [Cpd 45, N-trans-{4-[4-(2-Isopropoxy-phenyl)-piperazin-1-yl]-cyclohexyl}-4-trifluoromethoxy-benzenesulfonamide], the Ki was determined as 100 nM on α1a-AR, 111 nM at α1d-AR and 1250 nM at α1b-AR.
